Columns and labels:
FLAG-ERα = biological target: T1, FLAG-ERα (Homo sapiens, UniProt P03372); assay: ERE-driven luciferase transactivation assay in HELN-Fα cells; assay type: cell-based; conditions: 16 hr stimulation, luciferase activity, 100% = 10 nM E2
T1 construct: expressed in transfected cells; pSG5-puro plasmid
T1 sequence (P03372 1-595): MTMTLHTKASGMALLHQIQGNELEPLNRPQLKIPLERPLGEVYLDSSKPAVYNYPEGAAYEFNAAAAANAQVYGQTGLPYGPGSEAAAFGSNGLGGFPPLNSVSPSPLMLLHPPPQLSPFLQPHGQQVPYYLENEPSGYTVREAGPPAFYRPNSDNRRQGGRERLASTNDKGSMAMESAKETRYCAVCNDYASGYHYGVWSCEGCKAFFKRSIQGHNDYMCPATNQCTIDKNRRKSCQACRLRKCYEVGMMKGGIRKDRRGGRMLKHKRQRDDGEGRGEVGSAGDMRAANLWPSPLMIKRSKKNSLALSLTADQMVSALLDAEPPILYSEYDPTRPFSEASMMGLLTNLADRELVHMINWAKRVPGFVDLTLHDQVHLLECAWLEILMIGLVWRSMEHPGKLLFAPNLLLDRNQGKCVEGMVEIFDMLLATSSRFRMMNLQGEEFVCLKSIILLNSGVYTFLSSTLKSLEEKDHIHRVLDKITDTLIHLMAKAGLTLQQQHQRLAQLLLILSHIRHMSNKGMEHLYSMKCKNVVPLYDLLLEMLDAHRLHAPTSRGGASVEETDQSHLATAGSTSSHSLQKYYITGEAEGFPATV
Method: (§1) Cells were incubated with compounds for 16 h. At the end of the incubation, effector containing medium was removed and replaced by 0.3 mM luciferin containing 6% DCC-FCS. At this concentration, luciferin diffuses into the cell and produces a stable luminescent signal. The 96-well plate was then introduced in a microplate luminometer (Microbeta, Wallac) and intact living cell luminescence measured for 2 s. EC50 values were evaluated using Graph-Pad Prism Statistics software (version 4.0; Graph-Pad Software Inc., San Diego, CA, USA).

FLAG-ERβ = biological target: T2, FLAG-ERβ (Homo sapiens, UniProt Q92731); assay: ERE-driven luciferase transactivation assay in HELN-Fβ cells; assay type: cell-based; conditions: HELN-Fβ versus HELN-Fα cells, 16 hr
T2 construct: FLAG-ERβ (full length version of 530 amino acids); expressed in transfected cells; pSG5-puro plasmid
T2 sequence (Q92731 whole entry): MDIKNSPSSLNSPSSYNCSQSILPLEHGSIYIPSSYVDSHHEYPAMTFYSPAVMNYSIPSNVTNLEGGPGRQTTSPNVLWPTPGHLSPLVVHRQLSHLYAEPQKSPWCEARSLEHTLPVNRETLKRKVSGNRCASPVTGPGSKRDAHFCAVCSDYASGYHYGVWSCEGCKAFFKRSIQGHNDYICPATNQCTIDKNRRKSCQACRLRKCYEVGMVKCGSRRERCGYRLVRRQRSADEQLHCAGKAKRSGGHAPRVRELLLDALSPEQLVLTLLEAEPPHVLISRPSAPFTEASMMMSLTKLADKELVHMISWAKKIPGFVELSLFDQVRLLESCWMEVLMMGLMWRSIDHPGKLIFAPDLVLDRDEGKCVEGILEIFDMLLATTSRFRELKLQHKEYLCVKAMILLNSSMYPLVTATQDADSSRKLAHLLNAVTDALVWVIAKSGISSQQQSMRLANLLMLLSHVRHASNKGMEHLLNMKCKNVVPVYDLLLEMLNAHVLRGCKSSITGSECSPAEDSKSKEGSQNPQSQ
Method: as §1

ERα = system: ERα; parameters: method as in PMID 11708925, PMID 11150164; conditions: ERα selective agonist; RBA = 100 for estradiol; cited from earlier work

**Q.** For `CCCc1c(-c2ccc(O)cc2)nn(-c2ccc(O)cc2)c1-c1ccc(O)cc1` [PPT, Propylpyrazoletriol], which EC50 (FLAG-ERα) is on record?
**A.** 0.15 nM

**Q.** And the “activation of ERβ (in words)” value (FLAG-ERβ)?
**A.** activated only ERα

**Q.** And the “relative binding activity (RBA)” value (ERα)?
**A.** 49

Source: article PMC2749030, “New stably transfected bioluminescent cells expressing FLAG epitope-tagged estrogen receptors to study their chromatin recruitment” (BMC Biotechnology, 2009)
